Test results published in ChEMBL document CHEMBL1201862, “PubChem BioAssay data set” (2004).
Structures can show the parent of a compound that is named as a salt.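 Tested at 5 concentrations; 48 h exposure; 96-well plates; endpoints linearly interpolated, else capped at highest concentration. At the GI50, growth is halved.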 The source made the active and inactive calls. Cut-off read from the data, not from the text of the source: active = GI50 up to about 1.1 µM and inactive = higher.

Experiments:
Experiment in all cases: NCI anticancer screen, dose series, 48 h
[1] = system: CCRF-CEM
[2] = system: IGROV-1
[3] = system: HL-60
[4] = system: NCI-H23
[5] = system: OVCAR-5
[6] = system: K562
[7] = system: M14
[8] = system: SK-OV-3
[9] = system: COLO 205
[10] = system: NCI-H226
[11] = system: NCI/ADR-RES
[12] = system: SN12C
[13] = system: BT-549
[14] = system: HOP-92
[15] = system: OVCAR-4
[16] = system: SR
[17] = system: KM12
[18] = system: HCT-15
[19] = system: SK-MEL-28

Row | SMILES | GI50 [1] | GI50 [2] | GI50 [3] | GI50 [4] | GI50 [5] | GI50 [6] | GI50 [7] | GI50 [8] | GI50 [9] | GI50 [10] | GI50 [11] | GI50 [12] | GI50 [13] | GI50 [14] | GI50 [15] | GI50 [16] | GI50 [17] | GI50 [18] [µM] | GI50 [19]
1 | O=C1c2ccccc2C(=O)c2c1nc1ccccc1c2-c1cncc(-c2c3c(nc4ccccc24)C(=O)c2ccccc2C3=O)c1 | 0.562 µM (active) | 0.0596 µM (active) | 1.75 µM (inactive) | 1.18 µM (inactive) | 50.2 µM (inactive) | 1.31 µM (inactive) | 3.18 µM (inactive) | > 77.1 µM (inactive) | 2.85 µM (inactive) | 5.87 µM (inactive) | 4.13 µM (inactive) | 3.98 µM (inactive) | 11.4 µM (inactive) | 4.32 µM (inactive) | 30.9 µM (inactive) | 1.53 µM (inactive) | 3.61 µM (inactive) | 1.24 | 12.4 µM (inactive)
2 | CC1OC(OC2C(OC(=O)[C@]34CCC(C)(C)C[C@H]3C3=CC[C@@H]5[C@@]6(C)CC[C@H](OC7OC(C(=O)O)C(O)C(O)C7O)C(C)(C)[C@@H]6CC[C@@]5(C)[C@]3(C)C[C@H]4O)OCC(O)C2O)C(O)C(OC2OCC(O)(CO)C2O)C1OC1OCC(O)C(O)C1O (stereo partly specified) | 17 µM (inactive) | 16 µM (inactive) | 3.19 µM (inactive) | 2.59 µM (inactive) | 10.8 µM (inactive) | 10.3 µM (inactive) | 10.8 µM (inactive) | 15.6 µM (inactive) | 1.81 µM (inactive) | 10.9 µM (inactive) | 13.3 µM (inactive) | 3.37 µM (inactive) | 5.42 µM (inactive) | 12.1 µM (inactive) | 10.5 µM (inactive) | 3.94 µM (inactive) | 4.36 µM (inactive) | 16.4 | 4.49 µM (inactive)
3 | C=CC(C1=CC(=O)C(OC)=CC1=O)c1ccccc1 (stereo unspecified) [4-METHOXYDALBERGIONE] | 1.91 µM (inactive) | 16.4 µM (inactive) | 2.38 µM (inactive) | 16.1 µM (inactive) | 20.3 µM (inactive) | 3.33 µM (inactive) | 17.9 µM (inactive) | 17.3 µM (inactive) | 18.9 µM (inactive) | 17.1 µM (inactive) | 18.5 µM (inactive) | 14.3 µM (inactive) | 15.5 µM (inactive) | 4.98 µM (inactive) | 14.7 µM (inactive) | 3.86 µM (inactive) | 15.7 µM (inactive) | 14.3 | 15.5 µM (inactive)
4 | COc1cccc2c1C(=O)c1ccc3cc(CO)cc(O)c3c1C2=O | 0.204 µM (active) | 1.38 µM (inactive) | 0.171 µM (active) | 0.288 µM (active) | 2.09 µM (inactive) | 1.41 µM (inactive) | 0.245 µM (active) | 2.33 µM (inactive) | 1.53 µM (inactive) | 0.908 µM (active) | 0.515 µM (active) | 0.748 µM (active) | 1.58 µM (inactive) | 0.573 µM (active) | 0.652 µM (active) | 0.267 µM (active) | 0.893 µM (active) | 0.321 | 1.86 µM (inactive)
5 | CCOC(=O)c1c(C)[nH]c2c1c(CN(C)C)c(O)c1nc(C)c(C)nc12 | 10.8 µM (inactive) | 24.2 µM (inactive) | 8.09 µM (inactive) | 27.8 µM (inactive) | 28.4 µM (inactive) | 21.3 µM (inactive) | 36.1 µM (inactive) | 32.3 µM (inactive) | 14.5 µM (inactive) | 22.2 µM (inactive) | 24.2 µM (inactive) | 12.6 µM (inactive) | 26.2 µM (inactive) | 31.8 µM (inactive) | 27.2 µM (inactive) | 16.5 µM (inactive) | 28.2 µM (inactive) | 26.4 | 25 µM (inactive)
6 | Cc1cc(Cl)ccc1OCC(=O)Nc1nc(N)nc(N)n1 | > 100 µM (inactive) | > 100 µM (inactive) | > 100 µM (inactive) | > 100 µM (inactive) | > 100 µM (inactive) | > 100 µM (inactive) | > 100 µM (inactive) | > 100 µM (inactive) | > 100 µM (inactive) | > 100 µM (inactive) | > 100 µM (inactive) | > 100 µM (inactive) | > 100 µM (inactive) | > 100 µM (inactive) | > 100 µM (inactive) | > 100 µM (inactive) | > 100 µM (inactive) | > 100 | > 100 µM (inactive)
7 | COc1cc(OC)cc(C(=O)NC2=C(Cl)C(=O)c3ccccc3C2=O)c1 | 0.355 µM (active) | 2.18 µM (inactive) | 0.189 µM (active) | 2.43 µM (inactive) | 4.92 µM (inactive) | 0.798 µM (active) | 1.07 µM (active) | 2.49 µM (inactive) | 2.52 µM (inactive) | 3.3 µM (inactive) | 2.28 µM (inactive) | 3.15 µM (inactive) | 2.27 µM (inactive) | 1.45 µM (inactive) | 1.79 µM (inactive) | 1.06 µM (active) | 1.62 µM (inactive) | 0.94 | 2.96 µM (inactive)
8 | CN[C@@H]1[C@H](O)[C@H](NC)[C@H]2O[C@@]3(O)C(=O)C[C@@H](C)O[C@H]3O[C@@H]2[C@H]1O [SPECTINOMYCIN SULFATE] | > 100 µM (inactive) | > 100 µM (inactive) | > 100 µM (inactive) | > 100 µM (inactive) | > 100 µM (inactive) | > 100 µM (inactive) | > 100 µM (inactive) | > 100 µM (inactive) | > 100 µM (inactive) | > 100 µM (inactive) | > 100 µM (inactive) | > 100 µM (inactive) | > 100 µM (inactive) | > 100 µM (inactive) | > 100 µM (inactive) | > 100 µM (inactive) | > 100 µM (inactive) | > 100 | > 100 µM (inactive)
9 | c1ccc2nc(CCC3CCCCN3)ccc2c1 (stereo unspecified) | 83.2 µM (inactive) | 69.8 µM (inactive) | 67.9 µM (inactive) | 72.9 µM (inactive) | > 100 µM (inactive) | 47.4 µM (inactive) | > 100 µM (inactive) | > 100 µM (inactive) | 16.7 µM (inactive) | > 100 µM (inactive) | 49.5 µM (inactive) | > 100 µM (inactive) | 61.7 µM (inactive) | > 100 µM (inactive) | > 100 µM (inactive) | 68.5 µM (inactive) | > 100 µM (inactive) | > 100 | > 100 µM (inactive)
10 | CC(C)C(=O)C(C)(C)CCc1ccccn1 | > 100 µM (inactive) | > 100 µM (inactive) | > 100 µM (inactive) | > 100 µM (inactive) | > 100 µM (inactive) | > 100 µM (inactive) | > 100 µM (inactive) | > 100 µM (inactive) | > 100 µM (inactive) | > 100 µM (inactive) | > 100 µM (inactive) | > 100 µM (inactive) | > 100 µM (inactive) | > 100 µM (inactive) | > 100 µM (inactive) | > 100 µM (inactive) | > 100 µM (inactive) | > 100 | > 100 µM (inactive)
11 | O=P(O)(O)CN1CCNCCN(CP(=O)(O)O)CC1 | 23.6 µM (inactive) | 33.3 µM (inactive) | 4.21 µM (inactive) | 54.6 µM (inactive) | > 42.3 µM (inactive) | 6.32 µM (inactive) | 37.9 µM (inactive) | 23.7 µM (inactive) | 3.18 µM (inactive) | > 38.5 µM (inactive) | > 19.9 µM (inactive) | > 100 µM (inactive) | > 100 µM (inactive) | > 34 µM (inactive) | > 100 µM (inactive) | 9.44 µM (inactive) | 28.6 µM (inactive) | 8.89 | > 100 µM (inactive)
12 | COC(=O)C1=C(C(=O)OC)N(c2ccc(OC)cc2[N+](=O)[O-])C(c2ccc(C)cc2)=CC1c1ccc(OC)cc1OC (stereo unspecified) | 3.86 µM (inactive) | 13.3 µM (inactive) | 3.8 µM (inactive) | 22.4 µM (inactive) | 34.5 µM (inactive) | 3.16 µM (inactive) | 17.2 µM (inactive) | 25.8 µM (inactive) | 13.2 µM (inactive) | 18.3 µM (inactive) | 22.9 µM (inactive) | 13.6 µM (inactive) | 11.3 µM (inactive) | 47.2 µM (inactive) | 44 µM (inactive) | 2.28 µM (inactive) | 4.27 µM (inactive) | 4.65 | 64.3 µM (inactive)
13 | CCCN1CC=C(c2cc(C(=O)OCC)[nH]c2-c2cc(C)no2)C1=O | 89.3 µM (inactive) | > 100 µM (inactive) | > 100 µM (inactive) | > 100 µM (inactive) | > 100 µM (inactive) | > 100 µM (inactive) | > 100 µM (inactive) | > 100 µM (inactive) | > 100 µM (inactive) | 73.5 µM (inactive) | > 100 µM (inactive) | > 100 µM (inactive) | > 100 µM (inactive) | > 100 µM (inactive) | > 100 µM (inactive) | 54.7 µM (inactive) | > 100 µM (inactive) | > 100 | > 100 µM (inactive)
14 | C=CCn1c(-c2ccc(-c3cs/c(=N\N=O)n3CC=C)cc2)cs/c1=N\N=O | > 100 µM (inactive) | > 100 µM (inactive) | > 100 µM (inactive) | > 100 µM (inactive) | > 100 µM (inactive) | > 100 µM (inactive) | > 100 µM (inactive) | 40.7 µM (inactive) | > 100 µM (inactive) | > 100 µM (inactive) | > 100 µM (inactive) | 86.9 µM (inactive) | > 100 µM (inactive) | > 100 µM (inactive) | 22.2 µM (inactive) | > 100 µM (inactive) | > 100 µM (inactive) | > 100 | > 100 µM (inactive)
